# Reference: patent US8765728B2, “[1,5]-diazocin derivatives” (MelliTech, priority 2009, dated 2014)
# System: Min6 cell
# Assay: Insulin secretion response of beta cell line to formula I compounds (insulin ELISA)
# Format: cell-based
# Settings: rank according to % increase versus control at most effective dose
# In short: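 After compound or vehicle exposure, Min6 cells were held 2 h in glucose-free medium and preincubated 30 min at 37° C in glucose-free KRBH (pH 7.4, 0.1% BSA). They were then incubated 30 min at 37° C in KRBH with varying glucose. Secreted insulin and acid-ethanol-extracted intracellular insulin were measured by ELISA.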
row,Compound,Insulin secretion (Min6 cell) Range 1 to 5
1,"COc1ccc2c(c1OC(F)F)CN(C1CC1)C(=O)CCN2 [Compound 127, 5-cyclopropyl-7-(difluoromethoxy)-8-methoxy-2,3,5,6-tetrahydrobenzo[b][1,5]diazocin-4(1H)-one]",1 (1: 90-110% of control)
2,"O=C(c1cnccn1)N1CCC(=O)N(C2CC2)Cc2c1ccc1c2OCCO1 [Compound 128, 11-cyclopropyl-7-(pyrazine-2-carbonyl)-2,3,8,9,11,12-hexahydro-[1,4]dioxino[2′,3′:3,4]benzo[1,2-b][1,5]diazocin-10(7H)-one]",1 (1: 90-110% of control)
3,"COc1ccc2c(c1OC(F)F)CN(C1CC1)C(=O)CCN2C(=O)c1cnccn1 [Compound 129, 5-cyclopropyl-7-(difluoromethoxy)-8-methoxy-1-(pyrazine-2-carbonyl)-2,3,5,6-tetrahydrobenzo[b][1,5]diazocin-4(1H)-one]",2 (2: 110-120% of control)
4,"O=C(c1cnccn1)N1CCC(=O)N(C2CC2)Cc2cc(F)ccc21 [Compound 130, 5-cyclopropyl-8-fluoro-1-(pyrazine-2-carbonyl)-2,3,5,6-tetrahydrobenzo[b][1,5]diazocin-4(1H)-one]",1 (1: 90-110% of control)
5,"O=C(c1ccccn1)N1CCC(=O)N(C2CC2)Cc2cc(Cl)ccc21 [Compound 131, 8-chloro-5-cyclopropyl-1-picolinoyl-2,3,5,6-tetrahydrobenzo[b][1,5]diazocin-4(1H)-one]",1 (1: 90-110% of control)
6,"O=C(c1ccccn1)N1CCC(=O)N(C2CC2)Cc2c1ccc1c2OCCO1 [Compound 132, 11-cyclopropyl-7-picolinoyl-2,3,8,9,11,12-hexahydro-[1,4]dioxino[2′,3′:3,4]benzo[1,2-b][1,5]diazocin-10(7H)-one]",1 (1: 90-110% of control)
7,"O=C(c1cnccn1)N1CCC(=O)N(C2CC2)Cc2cc(Cl)ccc21 [Compound 133, 8-chloro-5-cyclopropyl-1-(pyrazine-2-carbonyl)-2,3,5,6-tetrahydrobenzo[b][1,5]diazocin-4(1H)-one]",2 (2: 110-120% of control)
8,"COc1ccc2c(c1OC(F)F)CN(C1CC1)C(=O)CCN2C[C@@H](O)COc1ccc(Cl)cc1 [Compound 134, (R)-1-(3-(4-chlorophenoxy)-2-hydroxypropyl)-5-cyclopropyl-7-(difluoromethoxy)-8-methoxy-2,3,5,6-tetrahydrobenzo[b][1,5]diazocin-4(1H)-one]",1 (1: 90-110% of control)
9,"O=C1CCN(C[C@@H](O)COc2ccc(Cl)cc2)c2ccc(Cl)cc2CN1C1CC1 [Compound 135, (R)-8-chloro-1-(3-(4-chlorophenoxy)-2-hydroxypropyl)-5-cyclopropyl-2,3,5,6-tetrahydrobenzo[b][1,5]diazocin-4(1H)-one]",1 (1: 90-110% of control)
10,"CS(=O)(=O)c1ccc(OC[C@H](O)CN2CCC(=O)N(C3CC3)Cc3cc(F)ccc32)cc1 [Compound 136, (R)-5-cyclopropyl-8-fluoro-1-(2-hydroxy-3-(4-(methylsulfonyl)phenoxy)propyl)-2,3,5,6-tetrahydrobenzo[b][1,5]diazocin-4(1H)-one]",1 (1: 90-110% of control)
11,"CS(=O)(=O)c1ccc(OC[C@H](O)CN2CCC(=O)N(C3CC3)Cc3cc(Cl)ccc32)cc1 [Compound 137, (R)-8-chloro-5-cyclopropyl-1-(2-hydroxy-3-(4-(methylsulfonyl)phenoxy)propyl)-2,3,5,6-tetrahydrobenzo[b][1,5]diazocin-4(1H)-one]",2 (2: 110-120% of control)
12,"Cc1cc(C(=O)N2CCC(=O)N(C3CC3)Cc3c2ccc2c3OCCO2)on1 [Compound 138, 11-cyclopropyl-7-(3-methylisoxazole-5-carbonyl)-2,3,8,9,11,12-hexahydro-[1,4]dioxino[2′,3′:3,4]benzo[1,2-b][1,5]diazocin-10(7H)-one]",1 (1: 90-110% of control)
13,"Cc1cc(C(=O)N2CCC(=O)N(C3CC3)Cc3cc(Cl)ccc32)on1 [Compound 139, 8-chloro-5-cyclopropyl-1-(3-methylisoxazole-5-carbonyl)-2,3,5,6-tetrahydrobenzo[b][1,5]diazocin-4(1H)-one]",1 (1: 90-110% of control)
14,"COc1ccc2c(c1OC(F)F)CN(C1CC1)C(=O)CCN2C(=O)c1cc(C)no1 [Compound 140, 5-cyclopropyl-7-(difluoromethoxy)-8-methoxy-1-(3-methylisoxazole-5-carbonyl)-2,3,5,6-tetrahydrobenzo[b][1,5]diazocin-4(1H)-one]",3 (3: 120-140% of control)
15,"COc1ccc2c(c1)CN(C1CC1)C(=O)CCN2C(=O)c1cc(C)no1 [Compound 141, 5-cyclopropyl-8-methoxy-1-(3-methylisoxazole-5-carbonyl)-2,3,5,6-tetrahydrobenzo[b][1,5]diazocin-4(1H)-one]",4 (4: 140-170% of control)
16,"Cc1cc(C(=O)N2CCC(=O)N(C3CC3)Cc3cc(OC(F)F)ccc32)on1 [Compound 142, 5-cyclopropyl-8-(difluoromethoxy)-1-(3-methylisoxazole-5-carbonyl)-2,3,5,6-tetrahydrobenzo[b][1,5]diazocin-4(1H)-one]",4 (4: 140-170% of control)
17,"O=C(CN1CCC(=O)N(C2CC2)Cc2cc(Cl)ccc21)c1ccc(OC(F)F)cc1 [Compound 143, 8-chloro-5-cyclopropyl-1-(2-(4-(difluoromethoxy)phenyl)-2-oxoethyl)-2,3,5,6-tetrahydrobenzo[b][1,5]diazocin-4(1H)-one]",2 (2: 110-120% of control)
18,"O=C(CN1CCC(=O)N(C2CC2)Cc2c1ccc1c2OCCO1)c1ccc(OC(F)F)cc1 [Compound 144, 11-cyclopropyl-7-(2-(4-(difluoromethoxy)phenyl)-2-oxoethyl)-2,3,8,9,11,12-hexahydro-[1,4]dioxino[2′,3′:3,4]benzo[1,2-b][1,5]diazocin-10(7H)-one]",1 (1: 90-110% of control)
19,"OC(CN1CCCN(C2CC2)Cc2cc(F)ccc21)c1ccc(Cl)cc1 (stereo not drawn) [Compound 145, 1-(4-chlorophenyl)-2-(5-cyclopropyl-8-fluoro-3,4,5,6-tetrahydrobenzo[b][1,5]diazocin-1(2H)-yl)ethanol]",3 (3: 120-140% of control)
20,"C[C@H](O)CN1CCC(=O)N(C2CC2)Cc2c1ccc1c2OCCO1 [Compound 146, (S)-11-cyclopropyl-7-(2-hydroxypropyl)-2,3,8,9,11,12-hexahydro-[1,4]dioxino[2′,3′:3,4]benzo[1,2-b][1,5]diazocin-10(7H)-one]",5 (5: >170% of control)
21,"C[C@H](O)CN1CCC(=O)N(C2CC2)Cc2cc(Cl)ccc21 [Compound 147, (S)-8-chloro-5-cyclopropyl-1-(2-hydroxypropyl)-2,3,5,6-tetrahydrobenzo[b][1,5]diazocin-4(1H)-one]",2 (2: 110-120% of control)
22,"O=C1CCN(CC(O)c2ccc(OC(F)F)cc2)c2ccc(Cl)cc2CN1C1CC1 (stereo not drawn) [Compound 148, 8-chloro-5-cyclopropyl-1-(2-(4-(difluoromethoxy)phenyl)-2-hydroxyethyl)-2,3,5,6-tetrahydrobenzo[b][1,5]diazocin-4(1H)-one]",1 (1: 90-110% of control)
23,"O=C1CCN(CC(O)c2ccc(OC(F)F)cc2)c2ccc3c(c2CN1C1CC1)OCCO3 (stereo not drawn) [Compound 149, 11-cyclopropyl-7-(2-(4-(difluoromethoxy)phenyl)-2-hydroxyethyl)-2,3,8,9,11,12-hexahydro-[1,4]dioxino[2′,3′:3,4]benzo[1,2-b][1,5]diazocin-10(7H)-one]",3 (3: 120-140% of control)
24,"O=C1CCN(C(=O)Cc2ccc(F)cc2)c2ncccc2CN1CC1CC1 [Compound 150, 5-(cyclopropylmethyl)-1-(2-(4-fluorophenyl)acetyl)-2,3,5,6-tetrahydropyrido[2,3-b][1,5]diazocin-4(1H)-one]",4 (4: 140-170% of control)
25,"Cc1cc(C(=O)N2CCC(=O)N(CC3CC3)Cc3cccnc32)on1 [Compound 151, 5-(cyclopropylmethyl)-1-(3-methylisoxazole-5-carbonyl)-2,3,5,6-tetrahydropyrido[2,3-b][1,5]diazocin-4(1H)-one]",1 (1: 90-110% of control)
26,"O=C1CCN(C(=O)c2cnccn2)c2ncccc2CN1CC1CC1 [Compound 152, 5-(cyclopropylmethyl)-1-(pyrazine-2-carbonyl)-2,3,5,6-tetrahydropyrido[2,3-b][1,5]diazocin-4(1H)-one]",3 (3: 120-140% of control)
27,"O=C1CCN(C(=O)c2cccnc2)c2ncccc2CN1CC1CC1 [Compound 153, 5-(cyclopropylmethyl)-1-nicotinoyl-2,3,5,6-tetrahydropyrido[2,3-b][1,5]diazocin-4(1H)-one]",3 (3: 120-140% of control)
28,"CC(C)(C)C(O)CN1CCC(=O)N(C2CCCC2)Cc2cc(F)ccc21 (stereo not drawn) [Compound 154, 5-cyclopentyl-8-fluoro-1-(2-hydroxy-3,3-dimethylbutyl)-2,3,5,6-tetrahydrobenzo[b][1,5]diazocin-4(1H)-one]",1 (1: 90-110% of control)
29,"COc1ccc2c(c1)CN(CC=C(C)C)C(=O)CCN2C(=O)c1ccno1 [Compound 156, 1-(isoxazole-5-carbonyl)-8-methoxy-5-(3-methylbut-2-enyl)-2,3,5,6-tetrahydrobenzo[b][1,5]diazocin-4(1H)-one]",1 (1: 90-110% of control)
30,"CCC#CCN1Cc2ccccc2N(C(=O)c2ccno2)CCC1=O [Compound 158, 1-(isoxazole-5-carbonyl)-5-(pent-2-ynyl)-2,3,5,6-tetrahydrobenzo[b][1,5]diazocin-4(1H)-one]",1 (1: 90-110% of control)
